These results are taken from US5565462A, “Composition for topical treatment of psoriasis and atopic dermatitis comprising a xanthine derivative” (Teva Pharmaceutical Industries, Ltd., priority 1991, dated 1996).

Experiment [1] has as its system human psoriatic fibroblasts. As to the kind of experiment: Inhibition of human psoriatic fibroblast proliferation. The class given is cell-based. How it is done: PTX and PPF, alone as well as PTX in combination with other drugs were tested.
Human psoriatic fibroblasts were obtained from skin biopsies of 5 individuals with plaque psoriasis. Cells in the 3-7th passages were used for the experiments. Human psoriatic fibroblasts (4×10^3 -6×10^3 cells) were added in 24-well plates and cultured in Dulbecco's Modified Eagle's Medium (DMEM) supplemented with 10% fetal calf serum, 2 mM L-glutamine, 100 u/ml penicillin, 100 μg/ml streptomycin (DMEM+) at 5% CO2 and 95% humidity at 37° C.
After 3 days, medium was replaced with fresh DMEM+(control) or with medium containing various concentrations of compounds alone or in combination with pentoxifylline and incubation was continued for additional 3 days. Stock solutions (10^-1 -10^-2 M) of the compounds tested were made in ethanol. For these compounds special control (DMEM+ with 1% ethanol) was made. The compounds tested together with pentoxifylline were 3-heptanone, 3,3-dimethylbutyric acid, lipoic acid, 1,25-dihydroxyvitamin D3 betamethasone dipropionate and hydrocortisone-17-butyrate.
On the last day of experiments, the medium was aspirated and the cells were obtained by trypsinization. The number of cells in each well was counted by the use of an hemocytometer.
The percentage of inhibition of fibroblast proliferation was calculated according to the formula: [formula] and the results are shown in Tables 3 and 4.

Experiment [2] concerns human peripheral blood mononuclear cells (lymphocytes). As to the kind of experiment: Inhibition of the mitogenic (PHA) stimulation of human lymphocytes (PBMC), [3H]thymidine. Particulars: for inhibition at 1000 µM / inhibition at 300 µM: Homo sapiens, Lymphocyte, lymphocytes from healthy volunteers, read-out: net inhibitory effect on the mitogenic stimulation of human lymphocytes; for inhibition at 1000 µM: 1 × 10^-3 M; for inhibition at 300 µM: 3 × 10^-4 M. It is filed as cell-based. The method, then:
Buffy coats from the Beilinson Medical Center Blood Bank or 20 mL samples of heparinized venous blood from healthy or atopic donors were used as a source for human peripheral blood mononuclear (PBM) cells. PBM cells were separated by Ficoll-Hypaque density gradient centrifugation. […] The nonadhering cells were stirred gently and carefully collected.
PHA (1 μg/mL), indomethacin (5 μg/mL) and various xanthine derivatives were added at initiation of culture. Indomethacin was dissolved in ethanol. […] [methyl-^3 H]Thymidine (1 μCi/well) was added at 68 h, and the cells were harvested 4 h later using an automated cell harvester (Dynatech, Alexandria, Va.). Unless otherwise stated, all cultures were performed in triplicate.

For experiment [3], the system named is peripheral blood mononuclear cells (PBMC). The note with it: Ravid et al. 1990; cited from earlier work.
The subject of experiment [4] is human psoriatic skin transplants. As to the kind of experiment: Topical treatment of human psoriatic skin transplanted to nude mice (epidermal thickness / acanthosis). The class given is in vivo, human skin on outbred Balb/C nude mice. The note with it: for % Improvement (Decrease in Thickness) / Average Improvement (decrease in epidermal thickness): 7 days; for Average Improvement (decrease in epidermal thickness): placebo 5%. The source says: Human psoriatic skin from psoriatic patients was transplanted to nude mice essentially according to the method of G. Kreuger et al., Prog. in Dermatol. […] The donors had stable plaque type psoriasis for at least one year preceding biopsy and had not received systemic anti-psoriatic therapy for the 4 weeks preceding biopsy. They had also not received topical therapy or U.V. therapy for the two weeks preceding biopsy. […] In this method the area (A) of the psoriasis in four main body parts (head (H), trunk (T), upper extremities (U) and lower extremities (L)) is assigned a value from 0-6 depending on the extent of psoriasis where O reflects no involvement and 6 reflects 90-100% involvement. The severity of the lesion is assessed based on three parameters: Erythema (E), Desquamation (scaling) (D) and Infiltration (I). The severity of each of these parameters is measured on a scale of 0-4 where 0 is no involvement and 4 is very sever. The total severity score is calculated according to the following formula: […]
Split thickness biopsies of nonpustular psoriatic human tissue, 4×5 cm and 0.4 mm thick were obtained from the edge of established plaques from various donor patients. […] The grafts were allowed to heal for one week prior to topical application of the test preparations.
Outbred Balb/C nude mice, 2 to 3 months of age were used in this study. The mice were obtained from the pathogen free animal breeding facility at the University of Tel Aviv (Israel) and were raised in the pathogen-free animal facility at the Faculty of Medicine, Technion-Israel Institute of Technology, Haifa, Israel.
On the day following the end of treatment the severity of the psoriatic lesion was assessed and then the animals were sacrificed and the entire graft was excised and divided into two equal sections. One section was used to assess changes in the rate of proliferation by autoradiography (tritiated thymidine incorporation) while the other section was sectioned for microscopic histological assessment, including acanthosis and parakeratosis.
In another series of experiments, human psoriatic skin of various severities was transplanted on each of 28 nude mice. The graft area was treated with various preparations as described above.
The treatments were applied as creams and were administered as described above.

For another experiment, the system named is psoriasis lesions. As to the kind of experiment: Clinical trial in psoriasis, 5% dyphylline cream vs placebo, PASI. It is filed as in vivo, human patients. Particulars: for % Decrease in PASI: 5% dyphylline cream, n = 33. How it is done: Two similar plaque areas of psoriasis (i.e. both legs or forearms), were selected for treatment in each patient. In each patient one area on one side of the body was treated with 2% pentoxifylline formulated as in Example 1 and the other area on the other side of the body was treated with placebo cream formulated identically but without the pentoxifylline. The cream (formulation A in Example 1) was applied by the patient twice daily.
The dermatological assessment was performed as follows. The dermatologist measured the area of the lesion in cm^2. The severity of each lesion was evaluated by grading erythema, scaling and thickness on a 0-4 scale where 0=none, 1=slight, 2=moderate, 3=severe and 4=exceptionally severe.
Based on these measurements the Psoriasis Area Severity Index (PASI) was calculated for each of the 2 lesions on each patient as follows:
PASI=Area x (Erythema+Thickness+Scaling)
In a different series of tests 5% dyphylline cream was applied in the same vehicle that had been used to apply PTX cream. Thus the formulation used in this series of tests was the same as in Example 1 with the exception that 5% dyphylline was used in place of 2% pentoxifylline. The design of the trial was similar in all respects to the clinical trial of PTX described in Example 5 except that the number of patients was 33.

The mark [5] stands for this setting: additional drug 10^-3 M with PTX 10^-3 M.
[6] abbreviates: additional drug 10^-3 M with PTX 10^-4 M.
[7] abbreviates: additional drug 10^-4 M with PTX 10^-3 M.
Where [8] appears, read: additional drug 10^-4 M with PTX 10^-4 M.
[9] abbreviates: additional drug 10^-7 M with PTX 10^-4 M.

“Also recorded” adds a separate entry of the source.

As for `CCCCCC(C)=O` [2-Heptanone], the “% Inhibition of Proliferation” value in experiment [1] (setting [5]) turned out to be 45%; in experiment [1] (setting [6]), 18.6%; in experiment [1] (setting [7]) it was 26.4%; in experiment [1] (setting [8]) it was 21.0%; in experiment [1] (additional drug 10^-5 M with PTX 10^-3 M) it was 21.3%.

Turning to `CC(C)(C)CC(=O)O` [3,3dimethyl butyricacid, 3,3-dimethylbutyric acid], the “% Inhibition of Proliferation” value in experiment [1] (setting [5]) is given as 21%; in experiment [1] (setting [6]), 36.3%; in experiment [1] (setting [7]), 17.2%; in experiment [1] (setting [8]), 19.3%.

With `Cn1c(=O)c2[nH]cnc2n(C)c1=O` [Theophylline], in experiment [2], the inhibition at 1000 µM turned out to be 59% and the inhibition at 300 µM worked out at 37%.

In the case of `C=C1/C(=C\C=C2/CCC[C@]3(C)[C@@H]([C@H](C)CCCC(C)(C)O)CC[C@@H]23)C[C@@H](O)C[C@@H]1O` [1,25(OH)2 D3, 1,25-dihydroxyvitamin D3], the “% Inhibition of Proliferation” value in experiment [1] (setting [9]) was found to be 49.5%.

In the case of `C[C@@H]1C[C@H]2[C@@H]3CCC4=CC(=O)C=C[C@]4(C)[C@@]3(F)[C@@H](O)C[C@]2(C)[C@@]1(O)C(=O)CO` [dexamethasone], the “inhibition of mitogenic stimulation of PBMC (in words)” value in experiment [3] is recorded as “inhibited the mitogenic stimulation of PBMC”.

Consider `Cn1c(=O)c2c(ncn2CC(O)CO)n(C)c1=O` (centres unmarked) [Dyphylline], for which, in experiment [4] (8% dyphylline, 7 days topical, placebo 0/6), the “SUCCESS RATIO (decrease of at least 15% in epidermal thickness)” value is 0/2. The “% Improvement (Decrease in Thickness)” value is given as 0% in experiment [4] (8% dyphylline, donor patient 1 (PASI 3.2)) and 0% in experiment [4] (8% dyphylline, donor patient 5 (PASI 31.3)). The “Average Improvement (decrease in epidermal thickness)” value in experiment [4] (8% dyphylline) is given as 0%. Further, the “Epidermal Thickness (Acanthosis) after 7 days treatment” value worked out at 65 μm in experiment [4] (8% dyphylline, donor patient 1 (PASI 3.2), before treatment 44 μm) and 45 μm in experiment [4] (8% dyphylline, donor patient 5 (PASI 31.3), before treatment 35 μm). In addition, the “effectiveness in treating psoriasis (in words)” value in experiment [4] (experiment of Table 1, transplanted skin) is “virtually inactive”; in experiment [4] (experiment of Table 2, 28 nude mice), “inactive”. In addition, the inhibition at 1000 µM in experiment [2] was determined as 24%. Moreover, the inhibition at 300 µM in experiment [2] came out at 12%. Moreover, the “effectiveness of treatment of psoriasis (in words)” value in the experiment with psoriasis lesions (5% dyphylline cream vs placebo) was “nearly ineffective with respect to placebo; also recorded: virtually inactive in the treatment of psoriasis”. The “% Decrease in PASI” value turned out to be 12.6% in the experiment on psoriasis lesions (1 week, placebo 12.4); 25.9% in the experiment with psoriasis lesions (2 weeks, placebo 30.0); 28.0% in the experiment with psoriasis lesions (4 weeks, placebo 21.5); 26.5% in the experiment on psoriasis lesions (6 weeks, placebo 15.6).

For the molecule `O=C(O)CCCCC1CCSS1` (centres unmarked) [Lipoicacid, lipoic acid], the “% Inhibition of Proliferation” value in experiment [1] (setting [7]) was 50.2%; in experiment [1] (setting [8]) it was 14.5%.

Regarding `CCC(=O)OCC(=O)[C@@]1(OC(=O)CC)[C@@H](C)C[C@H]2[C@@H]3CCC4=CC(=O)C=C[C@]4(C)[C@@]3(F)[C@@H](O)C[C@@]21C` [Betamethasone dipropionate, betamethasone dipropionate], the “% Inhibition of Proliferation” value turned out to be 77.5% in experiment [1] (setting [7]), 55.8% in experiment [1] (setting [8]) and 43.1% in experiment [1] (setting [9]).

For the molecule `CCCn1cnc2c1c(=O)n(CCCCC(C)=O)c(=O)n2C` [Propentofylline, 3-methyl-7-propyl-1-(5-oxohexyl)-xanthine], the inhibition at 1000 µM in experiment [1] (Homo sapiens, Fibroblast, compound alone, 10^-3 M, Table 4) is 39 ± 7%. Further, in experiment [1] (Homo sapiens, Fibroblast, compound alone, 10^-4 M, Table 4), the inhibition at 100 µM came to 20.3 ± 6.6%. In addition, in experiment [2], the inhibition at 1000 µM stood at 89% and the inhibition at 300 µM came out at 88%. In addition, the “inhibition of the mitogenic stimulation compared with the other xanthine derivatives (in words)” value in experiment [2] (vs theophylline and diphylline, healthy volunteers) is reported as “inhibited the mitogenic stimulation to a far greater effect than the other xanthine derivatives”.

On to `CCC(=O)O[C@]1(C(=O)CCl)[C@@H](C)C[C@H]2[C@@H]3CCC4=CC(=O)C=C[C@]4(C)[C@@]3(F)[C@@H](O)C[C@@]21C` [Clobetasol propionate], for which the “Average Improvement (decrease in epidermal thickness)” value in experiment [4] (0.05% clobetasol propionate (Dermovate)) is reported as 35%. Besides, the “% Improvement (Decrease in Thickness)” value amounted to 45% in experiment [4] (0.05% clobetasol propionate, donor patient 1 (PASI 3.2)); 41% in experiment [4] (0.05% clobetasol propionate, donor patient 3 (PASI 7.6)); 55% in experiment [4] (0.05% clobetasol propionate, donor patient 4 (PASI 17.6)); 0% in experiment [4] (0.05% clobetasol propionate, donor patient 5 (PASI 31.3)). Besides, the “Epidermal Thickness (Acanthosis) after 7 days treatment” value in experiment [4] (0.05% clobetasol propionate, donor patient 1 (PASI 3.2), before treatment 44 μm) came out at 24 μm; in experiment [4] (0.05% clobetasol propionate, donor patient 3 (PASI 7.6), before treatment 46 μm), 27 μm; in experiment [4] (0.05% clobetasol propionate, donor patient 4 (PASI 17.6), before treatment 54 μm), 24 μm; in experiment [4] (0.05% clobetasol propionate, donor patient 5 (PASI 31.3), before treatment 35 μm), 47 μm.
